Experiments:
[1] = target: T1, human bombesin BB1 receptors (Homo sapiens, UniProt P28336); experiment: Bombesin BB1 receptor binding assay, [125I][6-14]Bombesin, CHO cell membranes; settings: membranes from CHO cells expressing human BB1
T1 construct: expressed in transfected cells; host or cells: CHO cells
Protocol: The compounds of the present invention are a potent class of bombesin antagonists. Bombesin antagonism may be measured using the following binding assay using membranes from CHO cells expressing the human bombesin BB1 receptors.
Cells are maintained in Ham's F12 medium (Life Technologies Ltd, Cat No. 31765-027) supplemented with 10% FBS (Life Tech. Ltd., 10109-155) and 2 mM glutamine (or Glutamax in media). Cells are routinely passaged once weekly (split 1:5, approximate seeding density=1-4 million per […] flask), and fed every 2 days with fresh medium. Cells are frozen down (in Hams F12 containing 5% DMSO) 4-7 days after passaging and stored at −70° C. until required for use in binding experiments.
Frozen cells rapidly thawed and diluted with excess medium (each aliquot made up to 40 ml).
Cells harvested by centrifuging at 3000 g for 4 min at 21° C.
Cells resuspended in known volume of assay buffer, and cell count performed.
Membranes prepared by polytronning (setting 5, 10 secs). […]
(§1) For each assay plate, total (1% DMSO) and non-specific (1 μM, 1% DMSO), binding will be measured for the ligand on the receptor. Specific binding of the radioactive ligand to the receptor can thus be calculated to which specific binding of the radioactive ligand in the presence of a competing compound can be calculated and expressed as percentage inhibition of radioactive ligand binding.

BB2 = BB2 (Homo sapiens, UniProt P30550); experiment: Bombesin BB2 receptor binding assay
BB2, sequence (P30550 whole entry): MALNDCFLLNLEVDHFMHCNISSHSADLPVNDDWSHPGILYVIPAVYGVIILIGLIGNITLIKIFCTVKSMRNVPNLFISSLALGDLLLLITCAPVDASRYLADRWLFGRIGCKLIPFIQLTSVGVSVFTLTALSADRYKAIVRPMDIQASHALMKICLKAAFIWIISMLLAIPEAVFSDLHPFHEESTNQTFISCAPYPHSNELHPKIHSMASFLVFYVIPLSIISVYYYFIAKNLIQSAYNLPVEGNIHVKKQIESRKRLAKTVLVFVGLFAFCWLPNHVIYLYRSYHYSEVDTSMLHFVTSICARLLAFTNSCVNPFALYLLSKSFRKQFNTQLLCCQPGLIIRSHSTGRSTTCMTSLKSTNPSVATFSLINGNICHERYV
Protocol: Drug dilutions are performed using the Tecan Genesis/Miniprep handling stations. Assays are set up as follows
25 μl test compound/total/NSB
200 μl cell memb preparation
Assay additions using deep well Multidrop.
Non-specific binding is defined by 1 μM Bombesin 1% DMSO (final concentration).
1. Add membranes to start incubation. Vortex and incubate at 21° C. GRP assay=90 min; NMB assay=60 min.
2. Terminate reactions by rapid filtration onto GF\C filters or GF\C Unifilter plates presoaked in 0.2% PEI for >1 hour) using the appropriate Brandel cell harvester.
3. Wash with ice-cold HEPES HCl (50 mM, pH 7.4 at 21° C.).
Filter mats 6×1 ml total wash volume
Unifilter plates 2×1 ml total wash volume
4. Unifilters are dried at 50° C. for 60 minutes. Add 50 μl Microscint-0, Seal plates with Top-Seal A and count using TopCount NXT.
as §1

T1 sequence (P28336 whole entry): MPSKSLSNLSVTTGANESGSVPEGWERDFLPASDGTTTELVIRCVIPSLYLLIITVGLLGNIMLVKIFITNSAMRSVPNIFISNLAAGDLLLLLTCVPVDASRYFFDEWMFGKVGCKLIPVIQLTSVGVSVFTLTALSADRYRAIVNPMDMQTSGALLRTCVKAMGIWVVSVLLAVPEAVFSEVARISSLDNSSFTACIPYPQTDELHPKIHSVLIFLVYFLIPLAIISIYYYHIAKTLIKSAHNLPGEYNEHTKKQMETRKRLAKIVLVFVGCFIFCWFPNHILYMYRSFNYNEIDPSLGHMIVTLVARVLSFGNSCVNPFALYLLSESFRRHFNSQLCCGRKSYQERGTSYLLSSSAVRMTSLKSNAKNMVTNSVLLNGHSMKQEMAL

Q: Which results are given for `O=C(NCc1cccc(Cl)c1Cl)N(Cc1ccc(O)cc1)CC1(c2ccccn2)CCCCC1` [Example 1, 3-(2,3-Dichloro-benzyl)-1-(4-hydroxy-benzyl)-1-(1-pyridin-2-yl-cyclohexylmethyl)-urea]?
A: Ki [1]: 82 nM; Ki (BB2): 3590 nM

Q: With `CC(C)c1cccc(C(C)C)c1NC(=O)N(Cc1ccccc1)CC1(c2ncccn2)CCCCC1` [Example 181, 1-Benzyl-3-(2,6-diisopropyl-phenyl)-1-(1-pyrimidin-2-yl-cyclohexylmethyl)-urea] as the compound, how does the melting point read?
A: 112.5 to 113.5 °C

Q: Which melting point does the source give for `Cc1cccc(CNC(=O)N(CC2CC2)CC2(c3ccccn3)CCCCC2)c1C` [Example 184, 1-Cyclopropylmethyl-3-(2,3-dimethyl-benzyl)-1-(1-pyridin-2-yl-cyclohexylmethyl)-urea] here?
A: 102 to 103 °C

Q: Which melting point does the source give for `CC(C)c1cccc(C(C)C)c1NC(=O)N(Cc1ccccc1)CC1(c2nnnn2C)CCCCC1` [Example 180, 1-Benzyl-3-(2,6-diisopropyl-phenyl)-1-[1-(1-methyl-1H-tetrazol-5-yl)-cyclohexylmethyl]-urea] here?
A: 150 to 152 °C
